{"source": "patent US20170356048A1", "about": "“METHOD FOR PREDICTING RECEPTIVITY TO TARGETED ANTICANCER DRUG” (CBSBIOSCIENCE INC., priority 2014, published 2017)", "key": {"liver cancer": {"test_system": "liver cancer", "assay": "Rate of response to sorafenib treatment (reduction in tumor size by CT and MRI, mRECIST) in liver cancer patients stratified by risk score or marker gene expression", "assay_type": "in vivo, human", "procedure": "In the following manner, RNA was extracted from each of the tissues and synthesized into cDNA.\nThe risk scores of a total of 29 liver cancer patients were calculated, and the risk score distribution of responders to sorafenib and the risk score distribution of non-responders to sorafenib were examined. Herein, whether or not sorafenib would have a therapeutic effect was determined based on the degree of reduction in tumor size by CT and MRI imagings, and criteria for the determination followed mRECIST (modified Response Evaluation Criteria in Solid tumors) criteria version 1.1.\nIn addition, after stratification of the liver cancer patients by classification, the rate of response to sorafenib treatment was examined in order to confirm improvement in clinical responses, and the results of the examination are shown in Table 5 below."}, "hepatocellular carcinoma": {"test_system": "hepatocellular carcinoma", "conditions": "cited from earlier work"}}}
{"smiles": "CNC(=O)c1cc(Oc2ccc(NC(=O)Nc3ccc(Cl)c(C(F)(F)F)c3)cc2)ccn1", "note": "[sorafenib]", "values": [{"measurement": "Response rate (%)", "setting": "liver cancer; liver cancer patients with CDH1 expression ≦0.0067, 3 responders, 13 non-responders", "value": 18.75, "unit": "%"}, {"measurement": "Response rate (%)", "setting": "liver cancer; liver cancer patients with ID2 expression ≦0.4965, 3 responders, 12 non-responders", "value": 20.0, "unit": "%"}, {"measurement": "Response rate (%)", "setting": "liver cancer; liver cancer patients with MMP9 expression >0.0433, 3 responders, 15 non-responders", "value": 16.67, "unit": "%"}, {"measurement": "Response rate (%)", "setting": "liver cancer; liver cancer patients with TCF3 expression >0.3711, 2 responders, 1 non-responder", "value": 66.67, "unit": "%"}, {"measurement": "Response rate (%)", "setting": "liver cancer; liver cancer patients with risk score (CDH1, ID2, MMP9, TCF3) >87.59, 3 responders, 8 non-responders", "value": 27.27, "unit": "%"}, {"measurement": "treatment rate", "setting": "hepatocellular carcinoma; hepatocellular carcinoma, unselected patients", "value": "2-3%"}, {"measurement": "therapeutic effect", "setting": "hepatocellular carcinoma; known value, NEJM2008 359(4):378-390", "value": "about 2.3%"}]}
